# Reference: patent US12162893B2 (Erasca, Inc., priority 2020, dated 2024)
# Biological target: T1, mutant G12C K-RAS (Homo sapiens, UniProt P01116, G12C)
# T1 construct: made in house; host or cells: E. coli BL21
# Experiment: covalent adduct formation (CAF) with mutant G12C K-RAS
# Assay type: binding
# Parameters: CAF: unit not given here
# Conditions: for % CAF @ 10 μM,1 h: Table 6; for CAF: Table 3, Pyridone Core-Morpholine Unsubstituted; for CAF / % CAF (60 min): after 60 minutes at 10 micromolar
# Protocol: Embodiments disclosed herein are further illustrated by the following examples in Tables 1-4 and the Examples hereinbelow. The Tables indicate the compound number, structure, the observed mass spectral molecular weight peak, and covalent adduct formation (CAF) with a mutant G12C K-RAS after 60 minutes at a concentration of 10 micromolar.
Structure (SMILES),"% CAF @ 10 μM,1 h",further results
"C=CC(=O)N1C[C@H](C)N(c2nc(=O)n3c4c(c(-c5c(O)cccc5F)c(Cl)cc24)OC[C@@H]3CCCN2CCOCC2)C[C@H]1C (atropisomer, axis not shown) [Example 265, (3S,10S)-7-((2S,5R)-4-acryloyl-2,5-dimethylpiperazin-1-yl)-9-chloro-10-(2-fluoro-6-hydroxyphenyl)-3-(3-morpholinopropyl)-2,3-dihydro-5H-[1,4]oxazino[2,3,4-ij]quinazolin-5-one]",97.5%,
"C=CC(=O)N1C[C@H](C)N(c2nc(=O)n3c4c(c(-c5cccc6ccccc56)c(Cl)cc24)OC[C@H]3Cn2ccnc2)C[C@H]1C (atropisomer, axis not shown) [Example 317, (3R,10R)-3-((1H-imidazol-1-yl)methyl)-7-((2S,5R)-4-acryloyl-2,5-dimethylpiperazin-1-yl)-9-chloro-10-(naphthalen-1-yl)-2,3-dihydro-5H-[1,4]oxazino[2,3,4-ij]quinazolin-5-one]",72.8%,
"C=CC(=O)N1CCN(c2cc(=O)n3c4c(c(-c5c(O)cccc5F)ccc24)CCC3)CC1 [Example 45, 1-(4-acryloylpiperazin-1-yl)-8-(2-fluoro-6-hydroxyphenyl)-6,7-dihydropyrido[3,2,1-ij]quinolin-3(5H)-one]",,CAF: 1
"C=CC(=O)N1CCN(c2nc(=O)n3c4c(c(-c5c(O)cccc5F)c(Cl)cc24)OC[C@@H]3CO)[C@@H](C)C1 (single isomer, unassigned) [Example 24]",,"% CAF (60 min) (Table 2, Pyrimidone Core-Morpholine Substituted): 0%"
"C=CC(=O)N1C[C@H](C)N(c2nc(=O)n3c4c(c(-c5c(F)ccc6[nH]nnc56)ccc24)OCC3)C[C@H]1C [Example 223, 7-((2S,5R)-4-acryloyl-2,5-dimethylpiperazin-1-yl)-10-(5-fluoro-1H-benzo[d][1,2,3]triazol-4-yl)-2,3-dihydro-5H-[1,4]oxazino[2,3,4-ij]quinazolin-5-one]",0%,
"C=CC(=O)N1C[C@H](C)N(c2nc(=O)n3c4c(c(-c5c(C)ccc6cnn(C)c56)ccc24)OCC3)C[C@H]1C [Example 194, 7-((2S,5R)-4-acryloyl-2,5-dimethylpiperazin-1-yl)-10-(1,6-dimethyl-1H-indazol-7-yl)-2,3-dihydro-5H-[1,4]oxazino[2,3,4-ij]quinazolin-5-one]",2.5%,
"C=CC(=O)N1C[C@H](C)N(c2nc(=O)n3c4c(c(-c5ccc(F)cc5F)c(Cl)cc24)OC[C@H]3CN2CCOCC2)C[C@H]1C [Example 204, (3R)-7-((2S,5R)-4-acryloyl-2,5-dimethylpiperazin-1-yl)-9-chloro-10-(2,4-difluorophenyl)-3-(morpholinomethyl)-2H-[1,4]oxazino[2,3,4-ij]quinazolin-5(3H)-one]",82%,
"C=CC(=O)N1C[C@H](C)N(c2nc(=O)n3c4c(c(-c5ccc(F)cc5F)c(Cl)cc24)OC[C@@H]3CN(C(=O)[C@@H]2CCCN2C)C2CC2)C[C@H]1C [Example 310, (2S)-N-(((3S)-7-((2S,5R)-4-acryloyl-2,5-dimethylpiperazin-1-yl)-9-chloro-10-(2,4-difluorophenyl)-5-oxo-2,3-dihydro-5H-[1,4]oxazino[2,3,4-ij]quinazolin-3-yl)methyl)-N-cyclopropyl-1-methylpyrrolidine-2-carboxamide]",53.4%,
"C=CC(=O)N1C[C@H](C)N(c2nc(=O)n3c4c(c(-c5ccc(F)cc5F)c(Cl)cc24)O[C@@H](CCCN2C4CCC2COC4)C3)C[C@H]1C [Example 262, (2S)-2-(3-(3-oxa-8-azabicyclo[3.2.1]octan-8-yl)propyl)-7-((2S,5R)-4-acryloyl-2,5-dimethylpiperazin-1-yl)-9-chloro-10-(2,4-difluorophenyl)-2,3-dihydro-5H-[1,4]oxazino[2,3,4-ij]quinazolin-5-one]",31.6%,
"C=CC(=O)N1CCN(c2nc(=O)n3c4c(c(-c5c(C)ccc6[nH]nc(C)c56)c(Cl)cc24)OCC3)CC1 [Example 9, 7-(4-acryloylpiperazin-1-yl)-9-chloro-10-(3,5-dimethyl-1H-indazol-4-yl)-2H-[1,4]oxazino[2,3,4-ij]quinazolin-5(3H)-one]",,"% CAF (60 min) (Table 1, Pyrimidone Core-Morpholine Unsubstituted): 72.6%"
C=CC(=O)N1C[C@H](C)N(c2nc(=O)n3c4c(c(-c5ccc(F)cc5F)c(Cl)cc24)OC[C@@H]3CN2CCC(F)(F)C2)C[C@H]1C (stereo in doubt) [Example 202],34.2%,
"C=CC(=O)N1C[C@H](C)N(c2nc(=O)n3c4c(c(-c5ccc(F)cc5F)c(Cl)cc24)OC[C@H]3CCCN2CCN(C)C(=O)C2)C[C@H]1C [Example 283, (3R)-7-((2S,5R)-4-acryloyl-2,5-dimethylpiperazin-1-yl)-9-chloro-10-(2,4-difluorophenyl)-3-(3-(4-methyl-3-oxopiperazin-1-yl)propyl)-2,3-dihydro-5H-[1,4]oxazino[2,3,4-ij]quinazolin-5-one]",92.4%,
"C=CC(=O)N1CCN(c2nc(=O)n3c4c(c(-c5c(O)cccc5F)c(Cl)cc24)OC[C@@H]3CN2CCC(F)(F)C2)[C@@H](C)C1 (atropisomer, axis not shown) [Example 229, (3S,10R)-7-((S)-4-acryloyl-2-methylpiperazin-1-yl)-9-chloro-3-((3,3-difluoropyrrolidin-1-yl)methyl)-10-(2-fluoro-6-hydroxyphenyl)-2,3-dihydro-5H-[1,4]oxazino[2,3,4-ij]quinazolin-5-one]",1.6%,
"C=CC(=O)N1C[C@H](C)N(c2nc(=O)n3c4c(c(-c5ccc(F)cc5F)c(Cl)cc24)OC[C@H]3CN(C(=O)[C@@H]2CCCN2C)C2CC2)C[C@H]1C [Example 307, (2S)-N-(((3R)-7-((2S,5R)-4-acryloyl-2,5-dimethylpiperazin-1-yl)-9-chloro-10-(2,4-difluorophenyl)-5-oxo-3,5-dihydro-2H-[1,4]oxazino[2,3,4-ij]quinazolin-3-yl)methyl)-N-cyclopropyl-1-methylpyrrolidine-2-carboxamide]",51.1%,
"C=CC(=O)N1CCN(c2c(C#N)c(=O)n3c4c(c(-c5c(O)cccc5F)c(Cl)cc24)OCC3)[C@@H](C)C1 [Example 40, (R)-7-((S)-4-acryloyl-2-methylpiperazin-1-yl)-9-chloro-10-(2-fluoro-6-hydroxyphenyl)-5-oxo-3,5-dihydro-2H-[1,4]oxazino[2,3,4-ij]quinoline-6-carbonitrile]",,CAF: 75.5
"C=CC(=O)N1CCN(c2c(C#N)c(=O)n3c4c(c(-c5c(O)cccc5F)c(Cl)cc24)OCC3)[C@@H](C)C1 [Example 38, 7-((S)-4-acryloyl-2-methylpiperazin-1-yl)-9-chloro-10-(2-fluoro-6-hydroxyphenyl)-5-oxo-3,5-dihydro-2H-[1,4]oxazino[2,3,4-ij]quinoline-6-carbonitrile]",,CAF: 49.1
"C=CC(=O)N1CCN(c2nc(=O)n3c4c(c(-c5ccc(F)cc5F)c(Cl)cc24)OCC3)[C@@H](C)C1 [Example 275, 7-((S)-4-acryloyl-2-methylpiperazin-1-yl)-9 chloro-10-(2,4-difluorophenyl)-2,3-dihydro-5H-[1,4]oxazino[2,3,4-ij]quinazolin-5-one]",89.6%,
"C=CC(=O)N1C[C@H](C)N(c2nc(=O)n3c4c(c(-c5ccc(F)cc5F)c(Cl)cc24)O[C@H](CCCN2CCN(C)CC2)C3)C[C@H]1C [Example 260, (2R)-7-((2S,5R)-4-acryloyl-2,5-dimethylpiperazin-1-yl)-9-chloro-10-(2,4-difluorophenyl)-2-(3-(4-methylpiperazin-1-yl)propyl)-2,3-dihydro-5H-[1,4]oxazino[2,3,4-ij]quinazolin-5-one]",48.4%,
"C=CC(=O)N1C[C@H](C)N(c2nc(=O)n3c4c(c(-c5ccc(F)cc5F)c(Cl)cc24)O[C@@H](CCCN2CCOCC2)C3)C[C@H]1C [Example 258, (2S)-7-((2S,5R)-4-acryloyl-2,5-dimethylpiperazin-1-yl)-9-chloro-10-(2,4-difluorophenyl)-2-(3-morpholinopropyl)-2,3-dihydro-5H-[1,4]oxazino[2,3,4-ij]quinazolin-5-one]",17.7%,
"C=CC(=O)N1C[C@H](C)N(c2nc(=O)n3c4c(c(-c5ccc(F)cc5F)c(Cl)cc24)OC[C@@H]3COC[C@H]2CCCN2C)C[C@H]1C [Example 277, (3S)-7-((2S,5R)-4-acryloyl-2,5-dimethylpiperazin-1-yl)-9-chloro-10-(2,4-difluorophenyl)-3-((((R)-1-methylpyrrolidin-2-yl)methoxy)methyl)-2H-[1,4]oxazino[2,3,4-ij]quinazolin-5(3H)-one]",76.9%,
"C=CC(=O)N1C[C@H](C)N(c2nc(=O)n3c4c(c(-c5c(O)cccc5F)c(Cl)cc24)OC[C@@H]3CN2CCC(F)(F)C2)C[C@H]1C [Example 220, (3S,10R)-7-((2S,5R)-4-acryloyl-2,5-dimethylpiperazin-1-yl)-9-chloro-3-((3,3-difluoropyrrolidin-1-yl)methyl)-10-(2-fluoro-6-hydroxyphenyl)-2,3-dihydro-5H-[1,4]oxazino[2,3,4-ij]quinazolin-5-one]",0%,
"C=CC(=O)N1CCN(c2nc(=O)n3c4c(c(-c5c(O)cccc5F)c(Cl)cc24)OC[C@H]3CN2CCC(F)(F)C2)[C@@H](C)C1 (atropisomer, axis not shown) [Example 227, (3R,10R)-7-((S)-4-acryloyl-2-methylpiperazin-1-yl)-9-chloro-3-((3,3-difluoropyrrolidin-1-yl)methyl)-10-(2-fluoro-6-hydroxyphenyl)-2,3-dihydro-5H-[1,4]oxazino[2,3,4-ij]quinazolin-5-one]",0%,
"C=CC(=O)N1C[C@H](C)N(c2nc(=O)n3c4c(c(-c5ccc(F)cc5F)c(Cl)cc24)OC[C@H]3CCCN2CC(F)C2)C[C@H]1C [Example 279, (3R)-7-((2S,5R)-4-acryloyl-2,5-dimethylpiperazin-1-yl)-9-chloro-10-(2,4-difluorophenyl)-3-(3-(3-fluoroazetidin-1-yl)propyl)-2,3-dihydro-5H-[1,4]oxazino[2,3,4-ij]quinazolin-5-one]",97.5%,
